Reference: ChEMBL document CHEMBL4311942, “Design of Trp-Rich Dodecapeptides with Broad-Spectrum Antimicrobial Potency and Membrane-Disruptive Mechanism” (J Med Chem, 2019)
Values after ≈ are worked out from the molar mass of the structure shown. Active and inactive are the calls of the source. The calls are words filed in the database; no cut-off is given here. Where a SMILES comes first, the peptide text is derived from it.

How the values were obtained:
Escherichia coli [1] = assay: Bactericidal activity against Escherichia coli ATCC 25922 at 2 times MIC after 120 mins by time kill assay relative to control; assay type: functional
Escherichia coli [2] = assay: Antibacterial activity against Escherichia coli ATCC 25922 in presence of ZnCl2 by broth microdilution method; assay type: functional
Staphylococcus aureus [3] = assay: Induction of cell membrane disruption in Staphylococcus aureus ATCC 29213 assessed as apperance of broken and empty cell envelope at 2 times MIC after 60 mins by field emission scanning electron microscopy; assay type: organism-based
[4] = tested on: Staphylococcus epidermidis; assay: Antibacterial activity against Staphylococcus epidermidis ATCC 12228 incubated for 18 to 24 hrs by broth microdilution method; assay type: functional
[5] = Drug localization in Escherichia coli ATCC 25922 at 2 times MIC incubated for 1 hr using FITC-labelled peptides by propidium iodide-staining based super resolution fluorescent microscopy; assay type: ADME
Staphylococcus aureus [6] = assay: Antibacterial activity against Staphylococcus aureus ATCC 29213 in presence of FeCl3 by broth microdilution method; assay type: functional
Staphylococcus aureus [7] = assay: Antibacterial activity against Staphylococcus aureus ATCC 29213 in presence of MgCl2 by broth microdilution method; assay type: functional
Staphylococcus aureus [8] = assay: Antibacterial activity against Staphylococcus aureus ATCC 29213 incubated for 2 hrs in presence of sodium phosphate buffer at pH 12 by broth microdilution method; assay type: functional; settings: ATCC 29213, 2 h
Escherichia coli [9] = assay: Antibacterial activity against Escherichia coli ATCC 25922 in presence of FeCl3 by broth microdilution method; assay type: functional
Staphylococcus aureus [10] = assay: Antibacterial activity against Staphylococcus aureus ATCC 29213 incubated for 2 hrs in presence of sodium phosphate buffer at pH 10 by broth microdilution method; assay type: functional; settings: ATCC 29213, 2 h
Escherichia coli [11] = assay: Induction of cell membrane disruption in Escherichia coli ATCC 25922 assessed as appearance of membrane atrophy at 1 times MIC after 60 mins by field emission scanning electron microscopy; assay type: organism-based
Escherichia coli [12] = assay: Induction of cell membrane disruption in Escherichia coli ATCC 25922 assessed as leakage of cellular contents at 1 to 2 times MIC after 60 mins by transmission electron microscopy; assay type: organism-based
Escherichia coli [13] = assay: Antibacterial activity against Escherichia coli ATCC 25922 in presence of NH4Cl by broth microdilution method; assay type: functional
Staphylococcus aureus [14] = assay: Induction of cell membrane disruption in Staphylococcus aureus ATCC 29213 assessed as apperance of rough membrane with discrete blebs at 1 times MIC after 60 mins by field emission scanning electron microscopy; assay type: organism-based
Escherichia coli [15] = assay: Antibacterial activity against Escherichia coli ATCC 25922 in presence of MgCl2 by broth microdilution method; assay type: functional
Staphylococcus aureus [16] = assay: Antibacterial activity against Staphylococcus aureus ATCC 29213 using preheated compound at 100 degreeC for 1 hr by broth microdilution method; assay type: functional; settings: ATCC 29213, 1 h
Escherichia coli [17] = assay: Induction of outer membrane permeabilization in Escherichia coli UB1005 assessed as increase in NPN uptake by spectrofluorophotometric assay; assay type: organism-based
Erythrocyte = assay: Haemolytic activity in human erythrocytes assessed as lowest concentration causing 5% hemolysis after 1 hr; assay type: ADME, cell-based
Staphylococcus aureus [18] = assay: Induction of cell membrane disruption in Staphylococcus aureus ATCC 29213 assessed as collapsed membrane at 1 to 2 times MIC after 60 mins by transmission electron microscopy; assay type: organism-based
Acinetobacter baumannii = assay: Antibacterial activity against Acinetobacter baumannii AB1902 clinical isolate incubated for 18 to 24 hrs by broth microdilution method; assay type: functional
Escherichia coli [19] = assay: Antibacterial activity against Escherichia coli ATCC 25922 using preheated compound at 100 degreeC for 1 hr by broth microdilution method; assay type: functional; settings: ATCC 25922, 1 h
Escherichia coli [20] = assay: Antibacterial activity against Escherichia coli ATCC 25922 incubated for 18 to 24 hrs using FITC-labelled peptide by broth microdilution method; assay type: functional, organism-based
Escherichia coli [21] = assay: Induction of cytoplasmic membrane depolarization in Escherichia coli UB1005 by DiSC3-5 dye based fluorescence method; assay type: organism-based
Escherichia coli [22] = assay: Induction of cell membrane disruption in Escherichia coli ATCC 25922 after 30 mins by propidium iodide-staining based flow cytometric analysis; assay type: organism-based
Staphylococcus aureus [23] = assay: Induction of cell membrane disruption in Staphylococcus aureus ATCC 29213 after 30 mins by propidium iodide-staining based flow cytometric analysis; assay type: organism-based
Escherichia coli [24] = assay: Induction of cell membrane disruption in Escherichia coli ATCC 25922 assessed as seperation of cytoplasmic membrane from outer membrane at 2 times MIC after 60 mins by transmission electron microscopy; assay type: organism-based
Staphylococcus aureus [25] = assay: Bactericidal activity against Staphylococcus aureus ATCC 29213 at 4 times MIC after 30 mins by time kill assay; assay type: functional, organism-based
Staphylococcus aureus [26] = assay: Antibacterial activity against Staphylococcus aureus ATCC 29213 in presence of NH4Cl by broth microdilution method; assay type: functional
[27] = Drug localization in Staphylococcus aureus ATCC 29213 at 2 times MIC incubated for 1 hr using FITC-labelled peptides by propidium iodide-staining based super resolution fluorescent microscopy; assay type: ADME
[28] = Cytotoxicity against mouse RAW264.7 cells assessed as cell survival at […] after 24 hrs by MTT assay relative to control; assay type: cell-based; settings: read-out: Activity
Pseudomonas aeruginosa [29] = assay: Antibacterial activity against Pseudomonas aeruginosa PAO1 at sub-MIC treated over 35 serial passages by resistant development assay; assay type: functional, organism-based
[30] = Drug localization in Escherichia coli ATCC 25922 at 1 to 2 times MIC incubated for 1 hr using FITC-labelled peptides by propidium iodide-staining based regular fluorescent microscopy; assay type: ADME
Pseudomonas aeruginosa [31] = assay: Antibacterial activity against Pseudomonas aeruginosa 25349 clinical isolate incubated for 18 to 24 hrs by broth microdilution method; assay type: functional
Escherichia coli [32] = assay: Antibacterial activity against Escherichia coli ATCC 25922 in presence of CaCl2 by broth microdilution method; assay type: functional
[33] = Drug localization in Staphylococcus aureus ATCC 29213 at 1 to 2 times MIC incubated for 1 hr using FITC-labelled peptides by propidium iodide-staining based regular fluorescent microscopy; assay type: ADME
Staphylococcus aureus [34] = assay: Antibacterial activity against Staphylococcus aureus ATCC 29213 incubated for 2 hrs in presence of sodium phosphate buffer at pH 4 by broth microdilution method; assay type: functional; settings: ATCC 29213, 2 h
Escherichia coli [35] = assay: Antibacterial activity against Escherichia coli ATCC 25922 in presence of 50% serum by broth microdilution method; assay type: functional
Staphylococcus aureus [36] = assay: Induction of cell membrane disruption in Staphylococcus aureus ATCC 29213 assessed as propidium iodide-positive cells at 2 times MIC after 30 mins by flow cytometric analysis (reference value: 0.3%)
Escherichia coli [37] = assay: Antibacterial activity against Escherichia coli ATCC 25922 in presence of 25% serum by broth microdilution method; assay type: functional
Escherichia coli [38] = assay: Antibacterial activity against Escherichia coli ATCC 25922 incubated for 2 hrs in presence of sodium phosphate buffer at pH 2 by broth microdilution method; assay type: functional; settings: ATCC 25922, 2 h
Escherichia coli [39] = assay: Bactericidal activity against Escherichia coli ATCC 25922 assessed as reduction in bacterial growth at 2 times MIC after 60 mins by time kill assay relative to control; assay type: functional
Escherichia coli [40] = assay: Induction of cell membrane disruption in Escherichia coli ATCC 25922 assessed as appearance of cytoplasmic clear zones at 1 times MIC after 60 mins by transmission electron microscopy; assay type: organism-based

SMILES: CC(C)C[C@H](NC(=O)[C@H](CCCNC(=N)N)NC(=O)[C@H](Cc1c[nH]c2ccccc12)NC(=O)[C@H](CCCNC(=N)N)NC(=O)[C@@H](NC(=O)[C@H](CCCCN)NC(=O)[C@H](Cc1c[nH]c2ccccc12)NC(=O)[C@H](CCCNC(=N)N)NC(=O)[C@H](CC(C)C)NC(=O)[C@H](CCCNC(=N)N)NC(=O)[C@@H](N)Cc1c[nH]c2ccccc12)[C@@H](C)O)C(=O)N[C@@H](CCCCN)C(N)=O (H-WRLRWKTRWRLK-NH2)
- Activity (Escherichia coli [1]): 100%
- MIC (Escherichia coli [2]): 4 µM
- Activity (Staphylococcus aureus [3]): Active
- MIC [4]: 4 µM (≈ 7.14 µg/mL)
- Drug uptake [5]: Active
- MIC (Staphylococcus aureus [6]): 4 µM
- MIC (Staphylococcus aureus [7]): 2 µM
- MIC (Staphylococcus aureus [8]): 8 µM
- MIC (Escherichia coli [9]): 4 µM
- MIC (Staphylococcus aureus [10]): 4 µM
- Activity (Escherichia coli [11]): Active
- Activity (Escherichia coli [12]): Active
- MIC (Escherichia coli [13]): 1 µM
- Activity (Staphylococcus aureus [14]): Active
- MIC (Escherichia coli [15]): 2 µM
- MIC (Staphylococcus aureus [16]): 2 µM (≈ 3.57 µg/mL)
- Activity (Escherichia coli [17]): Dose-dependent effect
- MHC (Erythrocyte): > 128 µM
- Activity (Staphylococcus aureus [18]): Active
- MIC (Acinetobacter baumannii): 4 µM (≈ 7.14 µg/mL)
- MIC (Escherichia coli [19]): 2 µM (≈ 3.57 µg/mL)
- Activity (Escherichia coli [20]): Active
- Activity (Escherichia coli [21]): Dose-dependent effect
- Activity (Escherichia coli [22]): Dose-dependent effect
- Activity (Staphylococcus aureus [23]): Dose-dependent effect
- Activity (Escherichia coli [24]): Active
- Activity (Staphylococcus aureus [25]): Active
- MIC (Staphylococcus aureus [26]): 4 µM
- Drug uptake [27]: Active
- viability at 24 h, […] [28]: ≤ 90%
- Activity (Pseudomonas aeruginosa [29]): Active
- Drug uptake [30]: Active
- MIC (Pseudomonas aeruginosa [31]): 8 µM (≈ 14.3 µg/mL)
- MIC (Escherichia coli [32]): 2 µM
- Drug uptake [33]: Active
- MIC (Staphylococcus aureus [34]): 4 µM
- MIC (Escherichia coli [35]): 8 µM
- Activity (Staphylococcus aureus [36]): 97.7%
- MIC (Escherichia coli [37]): 4 µM
- MIC (Escherichia coli [38]): 4 µM
- log(activity) (Escherichia coli [39]): 1
- Activity (Escherichia coli [40]): Active
